Assays:
[1] = target: Cannabinoid receptor 1 (Rattus norvegicus, UniProt P20272); assay: Displacement of [3H]CP-55940 from Cannabinoid receptor 1 of rat forebrain membranes; format: cell membranes, Membrane
[2] = target: Cannabinoid receptor 2 (Mus musculus, UniProt P47936); assay: Compound was evaluated for its binding affinity for mouse spleen Cannabinoid receptor 2
Chain of Cannabinoid receptor 2 (P47936 whole entry): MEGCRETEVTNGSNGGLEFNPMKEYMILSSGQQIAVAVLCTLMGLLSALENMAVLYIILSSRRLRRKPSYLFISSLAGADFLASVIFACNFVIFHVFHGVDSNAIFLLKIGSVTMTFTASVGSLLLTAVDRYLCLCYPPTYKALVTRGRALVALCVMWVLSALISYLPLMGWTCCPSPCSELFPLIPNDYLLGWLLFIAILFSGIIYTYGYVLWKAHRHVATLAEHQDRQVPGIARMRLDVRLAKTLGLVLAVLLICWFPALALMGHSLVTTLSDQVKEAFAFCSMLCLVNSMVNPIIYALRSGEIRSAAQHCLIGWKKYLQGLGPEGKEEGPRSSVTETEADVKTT

Chain of Cannabinoid receptor 1 (P20272 whole entry): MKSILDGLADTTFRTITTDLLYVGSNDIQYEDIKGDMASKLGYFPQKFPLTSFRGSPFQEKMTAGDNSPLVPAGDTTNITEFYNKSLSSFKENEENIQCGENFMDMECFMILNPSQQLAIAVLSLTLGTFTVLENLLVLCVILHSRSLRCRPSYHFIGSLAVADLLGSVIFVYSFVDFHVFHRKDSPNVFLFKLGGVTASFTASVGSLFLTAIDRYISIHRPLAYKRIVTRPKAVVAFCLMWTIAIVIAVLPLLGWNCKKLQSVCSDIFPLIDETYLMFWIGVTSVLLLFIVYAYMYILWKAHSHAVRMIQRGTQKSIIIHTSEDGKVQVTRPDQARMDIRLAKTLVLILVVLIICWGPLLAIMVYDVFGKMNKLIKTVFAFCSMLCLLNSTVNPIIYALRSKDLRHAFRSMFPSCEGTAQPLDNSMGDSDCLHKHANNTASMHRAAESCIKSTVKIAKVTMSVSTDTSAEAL

Compound | Ki [1] [µM] | Ki [2] [µM]
CCCCC/C=C\C/C=C\C/C=C\C/C=C\CCCC(=O)N[C@H]1CCCC[C@@H]1O | > 3 | 
CCCCC/C=C\C/C=C\C/C=C\C/C=C\CCCC(=O)NCC(O)CC (stereo not given) | 0.203 | 
CCCCC/C=C\C/C=C\C/C=C\C/C=C\CCCC(=O)Nc1ccc(O)cc1 | 1.76 | 13
CCCCC/C=C\C/C=C\C/C=C\C/C=C\CCCC(=O)N[C@H](C)CO [METHANANDAMIDE] |  | 0.815
CCCCC/C=C\C/C=C\C/C=C\C/C=C\CCCC(=O)Nc1cccc(O)c1 | 1.56 | 3.1
CCCCC/C=C\C/C=C\C/C=C\C/C=C\CCCC(=O)Nc1ccccc1O | 1.66 | 2.1
CCCCC/C=C\C/C=C\C/C=C\C/C=C\CCCC(=O)NCCO [ANANDAMIDE] |  | 1.93
CCCCC/C=C\C/C=C\C/C=C\C/C=C\CCCC(=O)NC(CO)CO | 0.363 | 
CCCCC/C=C\C/C=C\C/C=C\C/C=C\CCCC(=O)NCc1ccc(O)cc1 | 0.217 | 11
CCCCC/C=C\C/C=C\C/C=C\C/C=C\CCCC(=S)NCCO | 1.38 | 6.3

From ChEMBL document CHEMBL1129747, “Head group analogs of arachidonylethanolamide, the endogenous cannabinoid ligand” (J Med Chem, 1996)
